# Test results from patent US20200291082A1, “PREVENTION AND TREATMENT OF GRAFT-VERSUS-HOST-DISEASE WITH DEFENSINS” (priority 2017, published 2020).
# “Also recorded” adds a separate entry of the source. No end group written: not given here.
# Key:
# [1] = test system: bacteria at the surface of the intestinal mucosa; assay: anti microbial effect of orally administered defensins, mucin immunostaining and localization of bacteria by FISH (Example 16); format: in vivo; details: compared with mice on low fat or western diet
# Method: Anti microbial effect of orally administered defensins (HD5 and hBD-2).
# Mucus immunostaining was paired with fluorescent in situ hybridization (FISH), as previously described in order to analyze bacteria localization at the surface of the intestinal mucosa. Briefly, colonic tissues (proximal colon, 2nd cm from the cecum) without fecal material were placed in methanol-Carnoy's fixative solution (60% methanol, 30% chloroform, 10% glacial acetic acid) for a minimum of 3 hours at room temperature. Tissues were then washed in methanol 2×30 min, ethanol 2×15 min, ethanol/xylene (1:1), 15 min and xylene 2×15 min, followed by embedding in Paraffin with a vertical orientation. Five pm sections were performed and dewax by preheating at 60° C. for 10 min, followed by xylene 60° C. for 10 min, xylene for 10 min and 99.5% ethanol for 10 minutes. Hybridization step was performed at 50° C. overnight with EUB338 probe (5′-GCTGCCTCCCGTAGGAGT-3′, with a 5′ labeling using Alexa 647) diluted to a final concentration of 10 μg/mL in hybridization buffer (20 mM Tris-HCl, pH 7.4, 0.9 M NaCl, 0.1% SDS, 20% formamide). After washing 10 min in wash buffer (20 mM Tris-HCl, pH 7.4, 0.9 M NaCl) and 3×10 min in PBS, PAP pen (Sigma-Aldrich) was used to mark around the section and block solution (5% fetal bovine serum in PBS) was added for 30 min at 4° C. […]
# [2] = test system: house dust mite driven model of allergic asthma; assay: prophylactic intranasal versus oral hBD2 in murine house dust mite driven model of allergic asthma (Example 9); format: in vivo, BALB/c mice
# Method: To determine and assess the efficacy of prophylactic treatment with intranasal (IN) versus oral defensins in a murine house dust mite driven model of allergic asthma.
# Treatment regime: Female 7-10 weeks old BALB/c mice were randomly allocated into 5 study groups one day prior to study start and subcutaneously (SC) sensitized to house dust mite (100 μg HDM in 200 μL saline plus Freund's complete adjuvant in 0.9% saline). The mice were treated with hBD2 orally and intranasally respectively at a dose of 1.2 mg/kg/day (0.4 mg/kg TID) starting on day 12 in the morning and continued TID at approximately 6 hours intervals. The last dose was administered on day 14 one hour prior to challenge. The total number of doses were […] hBD2. Mice were then intranasally (IN) challenged with HDM on day 14 (HDM 25 μg in 50 μL of saline) (FIG. 4).
# Airway inflammation: At 48 hours post challenge, bronchoalveolar lavage was performed washing the lungs with 3 volumes of cold PBS (0.4; 0.3 and 0.3 mL, total 1 mL). Total and differential leucocyte cell counts were determined on an automated haematological analyser Sysmex XT-2000iV.
# Lung function: Starting 48 hours after HDM challenge, measurements of lung resistance and lung compliance were carried out after methacholine challenge (3.125 MCH1; 6.25 MCH2; 12.5 MCH3 and 25 mg/mL MCH4) by anaesthetized, cannulated mice using DSI's Buxco Finepoint RC system. Data are represented as airway resistance at […] methacholine and as dose responsive curves.
# Lung sampling for cytokine analysis: After completion of every BAL, lungs were removed from the thorax, snap frozen in liquid nitrogen and stored frozen at −80 degrees Celsius until analysis of cytokine concentration of TNF-α, IL-4, IL-5, IL-6, IL-9, IL-13 and IL-33 in lung homogenate by ELISA.
# [3] = test system: Dextran Sodium Sulphate induced colitis; assay: therapeutic murine 14-day Dextran Sodium Sulphate induced colitis model (Example 5); format: in vivo, C57BL/6 mice
# Method: Anti-inflammatory effect of s.c. administration of hBD2 versus intraperitoneal anti TNF-α and intraperitoneal dexamethasone in a therapeutic, murine, 14-day, Dextran Sodium Sulphate induced colitis model.
# 70 male C57BL/6 mice housed in groups of five per cage were allocated to 7 different treatment groups. All animals had their drinking water supplemented with DSS 2% for 14 days to induce colitis resulting in significant inflammation and injury of the colonic tissue. The animals were treated with hBD2, 0.1 mg/kg s.c. BID; 0.1 mg/kg s.c. OD or 1.2 mg/kg i.v. […]
# A disease activity index (DAI) scoring system was applied for clinical assessment (FIG. 7). The animals were sacrificed on day 14 and colon removed for histological assessment employing a histological scoring system (FIG. 8)
# [4] = test system: Dextran Sodium Sulphate induced colitis; assay: prophylactic murine 7-day Dextran Sodium Sulphate induced colitis model, oral and s.c. hBD2 versus oral cyclosporine (Example 4); format: in vivo, C57BL/6 mice
# Description: Anti-inflammatory effect of oral and s.c. administration of hBD2 versus oral cyclosporine in a prophylactic, murine, 7-day, Dextran Sodium Sulphate induced colitis model.
# 80 male C57BL/6 mice housed in groups of five per cage were allocated to 7 different treatment groups. All animals had their drinking water supplemented with DSS 3% for 7 days to induce colitis characterized by epithelial damage, disruption of crypt architecture and a moderate inflammation characterized by accumulation of mononuclears and neutrophils in mucosa and submucosa. The animals were treated with oral hBD2 dosed at 0.6 mg/kg BID or 0.4 mg/kg TID; hBD2 dosed s.c. at 0.15 mg/kg BID or 0.1 mg/kg TID; or cyclosporine 50 mg/kg OD or water for 7 days.
# Clinical assessment was conducted as per a scoring system (0=no blood in stool; 1=evidence of blood in stool and 2=severe bleeding). The animals were sacrificed on day 7 and colon removed for histological assessment.
# [5] = hBD2 both oral and intranasal TID, day 12 to day 14 (total 2.0 mg/kg in 8 administrations), versus HDM challenged vehicle
# [6] = intranasally administered, not statistically significantly different from the control
# [7] = all four hBD2 dosing groups (oral 0.6 mg/kg BID, 0.4 mg/kg TID; s.c. 0.15 mg/kg BID, 0.1 mg/kg TID), cyclosporine 50 mg/kg OD, 7 days
substance,measurement,setting,value
human beta defensin 2 (GIGDPVTCLKSGAICHPVFCPRRYKQIGTCGLPGTKCCKKP; not fully specified (bridges); ends and bridges not checked; listed as Homo sapiens) [hBD2],"lysis zone, distance between intestinal wall and bacterial population",[1],profound effect on the distance
same,airway resistance,[2]; [5],effectively inhibited the increase of airway resistance
same,pulmonary compliance,[2]; [5],effectively inhibited
same,IL-4 in lung tissue homogenates,[2]; [6],trend towards lowering
same,IL-5 in lung tissue homogenates,[2]; [6],trend towards lowering
same,IL-6 in lung tissue homogenates,[2]; [6],trend towards lowering
same,IL-9 in lung tissue homogenates,[2]; [6],trend towards lowering
same,IL-13 in lung tissue homogenates,[2]; [6],trend towards lowering
same,TNF-α in lung tissue homogenates,[2]; [6],trend towards lowering
same,IL-4 concentration in lung tissue homogenates,[2]; oral administration,complete normalization of cytokine concentrations
same,IL-6 concentration in lung tissue homogenates,[2]; oral administration,complete normalization of cytokine concentrations
same,IL-9 concentration in lung tissue homogenates,[2]; oral administration,complete normalization of cytokine concentrations
same,IL-13 concentration in lung tissue homogenates,[2]; oral administration,complete normalization of cytokine concentrations
same,L-5 (31c) concentration in lung tissue homogenates,[2]; oral administration,complete normalization of cytokine concentrations
same,TNF-α concentration in lung tissue homogenates,[2]; oral administration,complete normalization of cytokine concentrations
same,neutrophil counts in BALF,[2]; oral application,significantly inhibited neutrophil counts
same,"histological score, compared with references","[3]; FIG. 16, hBD2 0.1 mg/kg versus dexamethasone 1 mg/kg and mouse anti TNF-α 300 μg/mouse",on par with dexamethasone 1 mg/kg and superior to mouse anti TNF-α 300 μg/mouse
same,disease activity index (DAI),"[3]; hBD2 0.1 mg s.c. OD, Dexamethasone 1 mg/kg i.p. OD, day 8 to day 14",statistically significant effect on DAI
same,histological score,"[3]; hBD2 0.1 mg/kg s.c. OD, Dexamethasone 1 mg/kg i.p. OD, colon day 14",statistically significant effect on histological score; also recorded: statistical significant effect
same,"clinical score, s.c. versus oral dosing",[4]; FIG. 15,seemed more efficacious than oral dosing
same,clinical scores,[4]; [7],highly statistically significant improvement; also recorded: statistical significant effect of hBD2 on par with cyclosporine
same,maintenance of colon length,[4]; [7],highly statistically significant improvement; also recorded: statistical significant effect of hBD2 on par with cyclosporine
same,"clinical score, TID versus BID dosing",[4]; both administration routes,more efficacious than BID dosing; also recorded: superiority of TID dosing of hBD2 over BID dosing
